Experimental data reported in patent US20260070911A1, “INHIBITORS OF TAM RECEPTORS” (National Health Research Institutes, priority 2022, published 2026).

Assays:
Format in all cases: biochemical
[1] = test system: MER/AXL; assay: Dual MER/AXL inhibition (enzymatic); details: class for both MER and AXL
Procedure: (§1) A purified kinase (AXL or MERTK) was incubated with a compound or DMSO (control) for 15 minutes in an assay buffer (25 mM Tri s pH 7.4, 10 mM MgCl2, 4 mM MnCl2, 2 mM DTT, 0.0100 BSA, 0.02% TritonX-100, 0.0100 Brij35 and 0.5 mM Na3VO4 for MERTK; and 40 mM Tri s pH 7.4, 20 mM MgCl2, 2 mM DTT, 0.01% BSA and 0.5 mM Na3VO4 for AXL). […] The mixture was incubated for 3 hours at 30° C. The luminescence was calculated to determine the kinase activity using a Kinase Glo assay kit for MERTK and an ADP-Glo Kinase Assay kit for AXL following the manufacture's instructions (Promega Corp., Madison, Wisconsin).

[2] = target: T1, MERTK (Homo sapiens, UniProt Q12866); assay: MERTK enzymatic assay (Kinase Glo); details: purified kinase, ATP 12 μM, read-out: MER Enzymatic Inhibition (%)
T1 sequence (Q12866 21-999): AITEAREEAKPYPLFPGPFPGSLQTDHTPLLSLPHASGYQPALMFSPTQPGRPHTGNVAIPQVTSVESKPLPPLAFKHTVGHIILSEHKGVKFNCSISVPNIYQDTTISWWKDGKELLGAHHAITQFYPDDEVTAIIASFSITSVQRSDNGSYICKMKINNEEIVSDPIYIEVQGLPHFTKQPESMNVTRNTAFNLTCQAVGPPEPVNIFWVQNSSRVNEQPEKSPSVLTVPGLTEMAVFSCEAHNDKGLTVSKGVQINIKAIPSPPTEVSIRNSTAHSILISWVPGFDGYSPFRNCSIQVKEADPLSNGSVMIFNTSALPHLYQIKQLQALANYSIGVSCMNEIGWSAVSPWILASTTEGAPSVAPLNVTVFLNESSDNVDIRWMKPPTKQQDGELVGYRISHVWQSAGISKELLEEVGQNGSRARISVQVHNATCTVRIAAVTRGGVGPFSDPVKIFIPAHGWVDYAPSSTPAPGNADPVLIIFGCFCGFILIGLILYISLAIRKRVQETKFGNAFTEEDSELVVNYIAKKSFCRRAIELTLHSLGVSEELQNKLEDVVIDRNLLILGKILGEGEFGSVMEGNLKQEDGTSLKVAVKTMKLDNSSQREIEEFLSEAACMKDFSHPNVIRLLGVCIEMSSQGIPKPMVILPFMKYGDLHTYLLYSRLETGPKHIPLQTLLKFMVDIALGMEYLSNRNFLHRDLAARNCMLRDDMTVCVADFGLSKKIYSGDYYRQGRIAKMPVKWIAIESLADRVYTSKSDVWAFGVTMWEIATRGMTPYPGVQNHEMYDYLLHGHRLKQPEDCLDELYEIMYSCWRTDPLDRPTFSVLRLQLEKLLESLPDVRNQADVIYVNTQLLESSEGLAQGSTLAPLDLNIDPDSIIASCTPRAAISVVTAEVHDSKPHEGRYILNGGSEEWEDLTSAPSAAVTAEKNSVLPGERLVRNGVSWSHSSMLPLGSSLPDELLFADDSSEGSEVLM
Procedure: as §1
(§2) A study was conducted to compare exemplary compounds of formula (I) in inhibiting TAM activities, including MERTK, AXL, and TYRO3. An enzymatic assay was used in the study. A purified Kinase (i.e., MERTK, AXL, or TYRO3) was incubated with a compound or DMSO (control) for around 15 minutes in an assay buffer (25 mM Tris pH 7.4, 10 mM MgCl2, 4 mM MnCl2, 2 mM DTT, 0.01% BSA, 0.02% TritonX-100, 0.01% Brij35 and 0.5 mM Na3VO4 for MERTK; 40 mM Tris pH 7.4, 20 mM MgCl2, 2 mM DTT, 0.01% BSA and 0.5 mM Na3VO4 for AXL; and 25 mM Tris pH 7.4, 10 mM MgCl2, 4 mM MnCl2, 2 mM DTT, 0.01% BSA and 0.5 mM Na3VO4 for TYRO3). […] The mixture was incubated for 3 hours at 30° C. The luminescence was calculated to determine the kinase activity using a Kinase Glo assay kit for MERTK and an ADP-Glo Kinase assay kit for AXL and TYRO3 following the manufacture's instructions (Promega). Inhibition rates and half maximal inhibitory concentration (IC50) values were calculated. High percentage inhibition rates and low IC50 values are indicatives of high potency of the test compound.

[3] = target: T2, AXL (Homo sapiens, UniProt P30530); assay: AXL enzymatic assay (ADP-Glo); details: purified kinase, ATP 50 μM, read-out: AXL Enzymatic Inhibition (%)
T2 sequence (P30530 26-894): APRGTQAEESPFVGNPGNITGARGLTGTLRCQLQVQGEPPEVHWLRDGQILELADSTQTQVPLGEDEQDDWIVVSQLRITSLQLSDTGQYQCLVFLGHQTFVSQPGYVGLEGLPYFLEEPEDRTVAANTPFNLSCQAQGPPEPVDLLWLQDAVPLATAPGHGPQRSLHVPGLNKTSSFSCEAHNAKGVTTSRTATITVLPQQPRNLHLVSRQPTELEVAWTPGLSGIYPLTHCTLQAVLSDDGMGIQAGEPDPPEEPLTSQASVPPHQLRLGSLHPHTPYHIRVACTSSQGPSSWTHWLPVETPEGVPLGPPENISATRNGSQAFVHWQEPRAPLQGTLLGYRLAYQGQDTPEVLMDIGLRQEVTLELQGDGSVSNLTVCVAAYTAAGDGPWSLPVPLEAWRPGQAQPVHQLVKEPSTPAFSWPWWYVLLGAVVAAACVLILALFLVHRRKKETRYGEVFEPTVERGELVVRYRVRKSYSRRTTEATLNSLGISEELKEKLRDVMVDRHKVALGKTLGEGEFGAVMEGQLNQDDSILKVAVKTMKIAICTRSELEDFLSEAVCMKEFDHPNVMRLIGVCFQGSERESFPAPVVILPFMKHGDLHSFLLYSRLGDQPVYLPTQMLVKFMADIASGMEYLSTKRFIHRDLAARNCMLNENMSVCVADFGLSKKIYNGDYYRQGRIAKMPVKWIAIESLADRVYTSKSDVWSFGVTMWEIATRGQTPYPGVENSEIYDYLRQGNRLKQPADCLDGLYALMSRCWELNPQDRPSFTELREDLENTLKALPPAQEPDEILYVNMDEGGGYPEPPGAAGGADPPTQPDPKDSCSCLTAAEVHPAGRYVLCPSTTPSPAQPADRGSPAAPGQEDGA
Procedure: as §1, §2

| Structure (SMILES) | IC50 [1] | IC50 [2] | IC50 [3] |
| --- | --- | --- | --- |
| Cn1cc(-c2oc3ncnc(Oc4ccc(NC(=O)c5cn(C)n(-c6ccc(F)cc6)c5=O)cc4)c3c2-c2cccc(CN3CCNCC3)c2)cn1 [Compound 130] | 100 to 50000 nM | 100 to 50000 nM | 100 to 50000 nM |
| CC(=O)Nc1cccc(-c2c(-c3cnn(C)c3)oc3ncnc(Oc4ccc(NC(=O)c5c(C)ccn(-c6ccc(F)cc6)c5=O)cc4)c23)c1 [Compound 72] | 100 to 50000 nM | 100 to 50000 nM | 100 to 50000 nM |
| Cn1cc(-c2oc3ncnc(Oc4ccc(NC(=O)c5cc6c(n(-c7ccc(F)cc7)c5=O)CCCC6=O)cc4)c3c2-c2cccc(N)c2)cn1 [Compound 68] | 20 to 100 nM | 20 to 100 nM | < 20 nM |
| CN(C)Cc1cccc(-c2c(-c3cnn(C)c3)oc3ncnc(Oc4ccc(NC(=O)c5cccn(-c6ccc(F)c(F)c6)c5=O)cc4)c23)c1 [Compound 95] | < 20 nM | < 20 nM | < 20 nM |
| CN(C)Cc1cccc(-c2c(-c3cnn(C)c3)oc3ncnc(Oc4ccc(NC(=O)c5cccn(C6CCCCC6)c5=O)cc4)c23)c1 [Compound 84] | 100 to 50000 nM | 100 to 50000 nM | 100 to 50000 nM |
| Cn1cc(-c2oc3ncnc(Oc4ccc(NC(=O)c5cn(C)n(-c6ccc(F)cc6)c5=O)cc4)c3c2-c2cccc(CN3CCOCC3)c2)cn1 [Compound 127] | 100 to 50000 nM | 100 to 50000 nM | < 20 nM |
| Nc1cccc(-c2c(-c3ccccc3)oc3ncnc(Oc4ccc(NC(=O)c5cccn(-c6ccc(F)cc6)c5=O)cc4)c23)c1 [Compound 9] | 100 to 50000 nM | 100 to 50000 nM | 100 to 50000 nM |
| Cn1cc(-c2oc3ncnc(Oc4ccc(NC(=O)c5cccn(C6CCCCC6)c5=O)cc4)c3c2-c2cccc(N)c2)cn1 [Compound 83] | 100 to 50000 nM | 100 to 50000 nM | 100 to 50000 nM |
| Cn1cc(-c2oc3ncnc(Oc4ccc(NC(=O)c5cn(C)n(-c6ccc(F)cc6)c5=O)cc4)c3c2-c2ccccc2N)cn1 [Compound 141] | 100 to 50000 nM | 100 to 50000 nM | 100 to 50000 nM |
| CCNc1cccc(-c2c(-c3cnn(C)c3)oc3ncnc(Oc4ccc(NC(=O)c5cn(C)n(-c6ccc(F)cc6)c5=O)cc4)c23)c1 [Compound 178] | 100 to 50000 nM | 100 to 50000 nM | < 20 nM |
| CC(=O)Nc1cccc(-c2c(Br)oc3ncnc(Oc4ccc(NC(=O)c5cccn(-c6ccc(F)cc6)c5=O)cc4)c23)c1 [Compound 49] |  | 100 to 50000 nM | 20 to 100 nM |

The remaining lines, values ahead:

| IC50 [1] | IC50 [2] | IC50 [3] | Structure (SMILES) |
| --- | --- | --- | --- |
| 100 to 50000 nM | 100 to 50000 nM | 100 to 50000 nM | C=CC(=O)Nc1cccc(-c2c(-c3cnn(C)c3)oc3ncnc(Oc4ccc(NC(=O)c5cccn(-c6ccc(F)cc6)c5=O)cc4)c23)c1 [Compound 12] |
| 100 to 50000 nM | 100 to 50000 nM | < 20 nM | CC(=O)Nc1cccc(-c2c(-c3cc[nH]n3)oc3ncnc(Oc4ccc(NC(=O)c5cccn(-c6ccc(F)cc6)c5=O)cc4)c23)c1 [Compound 67] |
| 100 to 50000 nM | 100 to 50000 nM | 100 to 50000 nM | O=C(Nc1ccc(Oc2ncnc3[nH]c(-c4ccccc4)cc23)cc1)c1cccn(-c2ccc(F)cc2)c1=O [Compound 76] |
| 100 to 50000 nM | 100 to 50000 nM | 100 to 50000 nM | CN(C(=O)c1cccn(-c2ccc(F)cc2)c1=O)c1ccc(Oc2ncnc3oc(-c4cnn(C)c4)c(-c4cccc(N(C)S(C)(=O)=O)c4)c23)cc1 [Compound 64] |
| 100 to 50000 nM | 100 to 50000 nM | 100 to 50000 nM | O=C(Nc1ccc(Nc2ncnc3[nH]cc(C#Cc4ccccc4)c23)cc1)c1cccn(-c2ccc(F)cc2)c1=O [Compound 13] |
| < 20 nM | < 20 nM | < 20 nM | CC(=O)Nc1cccc(-c2c(-c3cnn(C)c3)oc3ncnc(Oc4ccc(NC(=O)c5ccc(C)n(-c6ccc(F)cc6)c5=O)cc4)c23)c1 [Compound 70] |
| 100 to 50000 nM | 100 to 50000 nM | 100 to 50000 nM | CC(=O)Nc1cccc(-c2c(-c3cnn(C)c3)oc3ncnc(Oc4ccc(NC(=O)c5ccc(-c6cccc(F)c6)o5)cc4)c23)c1 [Compound 120] |
